Results on 17 molecules are retold here after patent US12438175B2, “Aqueous organic-based electrolyte for redox flow battery” (KEMIWATT, priority 2019, dated 2025).

Molecules are shown by their SMILES. ≈ marks a conversion by molar mass, not a printed value. Counter-ions that a name gives are not always drawn.

For data set [1] the following is noted: comparative redox active material in negolytes; cited from earlier work.
Data set [2] is described as follows: Cycling tests of redox flow battery cells in constant power cycling mode.
Data set [3] can be described thus: Solubility in aqueous solution at various pH by shake-flask method. The settings on record: thermodynamic from solid.
Experimental: An aqueous solution (containing either KCl 1M, KOH 1M or H2SO4 1M) is added over 100 mg of compound by 20 μL portions until complete solubilization. We obtain an approximate range of solubility values calculated as following:
Smax˜(m/M)/V; m=mass of evaluated compound (g); M=molar mass of evaluated compound (g·mol^−1); V=added volume (L).
Data set [4] can be described thus: Cyclic voltammetry / linear sweep voltammetry, electrochemical parameters. In kind it is physicochemical. Conditions: for Peak-to-peak separation ΔEp: 100 mV/s, third cycle. How it is done: Cyclic voltammetry experiments were performed at a 100 mV/s scan rate for compounds M3CH, D3CH, D4CH, M3SH, D3SH, M4SH and D4SH in solution at pH 13 (KOH 0.1 M) or pH 14 (KOH 1 M).
The electrochemical experiments were conducted on an electrochemical working station (BioLogic Science Instruments VSP) at 25° C. using a three-electrodes electrochemical cell, where a Pt wire was employed at the counter electrode (CE), an Ag/AgCl/KCl saturated electrode immerged in a 1 M KOH solution protected from the cell by a porous frit glass served as the reference electrode (RE) and a rotating disc electrode (RDE) mounted with a glassy carbon (GC, 7.069 mm^2) disk was used as the working electrode (WE), respectively. The potential was reported relative to the normal hydrogen electrode (NHE), which was converted from the Ag/AgCl reference electrode (0.230 V versus NHE). The ohmic drop between the WE and RE is determined by current interrupt experiments and leads to a value close to 0.7069 Ω·cm^2. All cyclic voltammetry experiments were conducted by alleviating most of this resistance (85%) using the potentiostat manual ohmic drop compensation. Before each electrochemical measurement, the GC disk electrode was polished using SiC P4000 foil.
Each recorded cyclic voltammetry of the reduction and the oxidation process of a compound at a given scan rate is analyzed by measuring ip,a=anodic peak current; ip,c=cathodic peak current; v=scan rate; Ep,a=anodic peak potential; Ep,c=cathodic peak potential; ΔEp=Ep,a−Ep,c; the apparent standard redox potential E^0′=[…].
Linear sweep voltammetry (LSV) using the RDE at various rotation speed (400 up to 1 000 RPM) were performed to determine the averaged half-wave potential E1/2.
The oxidation (DO) and the reduction (DR) diffusion coefficients were calculated using Randles-Sevcik (RS) equation ip=0.4463·n^3/2·F^3/2·A·C·v^1/2·D^1/2·R^−1/2·T^−1/2=Cye·v^1/2·D^1/2, n=number of electrons exchanged during the redox process; F=faradaic number=96485 C·mol^−1; A=electrode active surface; C=redox active molecule concentration; R=gas constant=8.314 J·K^−1·mol^−1; T=bulk temperature=299 K. The experiments are conducted by cyclic voltammetry at various scan rates ranging from 10 mV/s up to 20 V/s.
A graphic of lip,al and lip,cl=f(Cte×v^1/2) is plotted, if the redox process is reversible and diffusion controlled, the peak current should be proportional to the square root of the scan rate. The diffusion coefficients (oxidation and reduction) are then calculated by taking the square of the regression lines slopes. Diffusion coefficients (oxidation and reduction processes) are evaluated by plotting the peak current versus a constant multiplied by the square root of the scan rate. The plots regression line gives a straight line with perfect correlation coefficient (100%) confirming that the redox process is reversible and diffusion controlled. The square of each slope gives the associated coefficient diffusion in cm^2 s^−1.
The apparent heterogeneous rate constant during oxidation (k^0′O)/and reduction (k^0′R) process was calculated using Gileadi's equation (C. Rüssel, W. Jaenicke, Electrochimica Acta, Vol 27, N° 12, 1745-1750, 1982) log k^0′=−0.48α+0.52 +log[(nFαvcD)/(2.303RT)]^1/2; vc is the critical scan rate, it is calculated by plotting the peak potentials versus the logarithm of the scan rates, and is more precise when a very wide range of scan rates is used, which is the case here (0.010 up to 20 V·s^−1), it is determined at the x-axis of the point of intersection of the regression lines drawn at low and high scan rates; a is the transfer coefficient that is supposed to be close to 0.5 for all presented compounds.
Peak-to-peak separation ΔEp values were determined from the third cycle of each cyclic voltammogram (FIGS. 1 and 2) and are gathered in the following table 4.
The standard redox process reversibility evaluation is performed in diluted state, at 5 mM of concentration, at pH 14 buffered with 1 M of KOH. […]

Where [5] appears, read: 0.3 M AQ-2,7-DS, pH 13.0, Battery no 3, 60 mL, flowrate 0.5 mL/min/cm^2.
Setting [6] is: 0.3 M AQ-2,7-DS, pH 13.0, Battery no 3, 60 mL, flowrate 5 mL/min/cm^2.
The mark [7] stands for this setting: 0.3 M AQ-2,7-DS, pH 13.0, Battery no 4, 120 mL, flowrate 0.5 mL/min/cm^2.
[8] abbreviates: 0.3 M AQ-2,7-DS, pH 13.0, Battery no 4, 120 mL, flowrate 5 mL/min/cm^2.
[9] abbreviates: extrapolated from 5 days, flowrate 0.5 mL/min/cm^2, negolyte 120/120/40/370 mL.
Where [10] appears, read: 0.3 M Complexone, pH 13.7, Battery no 5, 40 mL, flowrate 0.5 mL/min/cm^2.
Where [11] appears, read: 0.3 M Complexone, pH 13.7, Battery no 5, 40 mL, flowrate 5 mL/min/cm^2.
Setting [12] is: 0.2 M ARS, pH 14.0, Battery no 1, 60 mL, flowrate 0.5 mL/min/cm^2.
Setting [13] is: 0.2 M ARS, pH 14.0, Battery no 1, 60 mL, flowrate 5 mL/min/cm^2.
The mark [14] stands for this setting: 0.2 M ARS, pH 14.0, Battery no 2, 120 mL, flowrate 0.5 mL/min/cm^2.
Where [15] appears, read: 0.2 M ARS, pH 14.0, Battery no 2, 120 mL, flowrate 5 mL/min/cm^2.

Take `O=C1C=C(O)C(=O)C=C1O` [DHBQ]: in data set [1], the “DO × 10^−6” value is 3.66 × 10^−6 cm^2/s and the “k^0′O × 10^−2” value is 0.21 × 10^−2 cm/s.

As to `O=C1c2ccc(S(=O)(=O)O)cc2C(=O)c2cc(S(=O)(=O)O)ccc21` [AQ-2,7-DS, Anthraquinone-2,7-disulfonic acid disodium salt], the “Stability in cycles (−20%)” value in data set [2] (setting [5]) was 563 cycles; in data set [2] (setting [6]), 378 cycles; in data set [2] (setting [7]) it was 0 cycles; in data set [2] (setting [8]) it was 173 cycles; in data set [2] (setting [9]) it was 0 cycles. For the same molecule, the “Stability in days (−20%)” value in data set [2] (setting [5]) is 27.1 days; in data set [2] (setting [6]), 21.1 days; in data set [2] (setting [7]) it was 0.0 days; in data set [2] (setting [8]) it was 19.6 days; in data set [2] (setting [9]), 0.0 days. The “behaviour after decreasing the flowrate down to 0.5 mL/min/cm^2” value in data set [2] (constraints close to real systems, 0.3 M, pH 13.0) is recorded as “precipitates directly”. In data set [1], the “DO × 10^−6” value is 3.8 × 10^−6 cm^2/s. For the same molecule, the “k^0′O × 10^−2” value in data set [1] is 0.72 × 10^−2 cm/s.

For `O=C1c2ccccc2C(=O)c2c(OCCCS(=O)(=O)O)ccc(O)c21` [Compound M3SNa], the solubility in data set [3] (aqueous H2SO4 1M solution, pH 0, aqueous buffer) was 460 mM (≈ 167 mg/mL); in data set [3] (unbuffered aqueous KCl 1M solution, saline or isotonic) it was 320 mM (≈ 116 mg/mL).

For `O=C1c2ccccc2C(=O)c2c(OCCCCS(=O)(=O)[O-])ccc(O)c21.[Na+]` [Compound M4SNa], the “Solubility, solution at pH 0 (H2SO4 1M)” value came out at 0.37 M and the “Solubility, solution at pH 14 (KOH 1M)” value stood at 0.88 M.

Take `O=C1c2ccc(OCCCP(=O)(O)O)cc2C(=O)c2ccc(OCCCP(=O)(O)O)cc21` [DPPEAQ]: in data set [1], the “DO × 10^−6” value is reported as 1.37 × 10^−6 cm^2/s.

Consider `O=C(O)CN(CC(=O)O)Cc1cc2c(c(O)c1O)C(=O)c1ccccc1C2=O` [Complexone, 3,4-Dihydroxyanthraquinon-2-yl-methylimino-diacetic acid], for which the “Stability in cycles (−20%)” value was 63 cycles in data set [2] (setting [10]), 69 cycles in data set [2] (setting [11]) and 74 cycles in data set [2] (setting [9]). Besides, the “Stability in days (−20%)” value in data set [2] (setting [10]) is given as 3.2 days; in data set [2] (setting [11]) it was 3.4 days; in data set [2] (setting [9]), 3.3 days.

On to `O=C1c2ccccc2C(=O)c2c1cc(S(=O)(=O)O)c(O)c2O` [ARS, 1,2-Dihydroxyanthraquinone-3-sulfonic acid sodium salt], for which the “Stability in cycles (−20%)” value in data set [2] (setting [12]) was 81 cycles; in data set [2] (setting [13]), 138 cycles; in data set [2] (setting [14]), 45 cycles; in data set [2] (setting [15]) it was 62 cycles; in data set [2] (setting [9]), 45 cycles. In addition, the “Stability in days (−20%)” value is 3.5 days in data set [2] (setting [12]); 6.4 days in data set [2] (setting [13]); 3.8 days in data set [2] (setting [14]); 6.6 days in data set [2] (setting [15]); 3.5 days in data set [2] (setting [9]).

For `O=C(O)CCCOc1ccc2c(c1)C(=O)c1ccc(OCCCC(=O)O)cc1C2=O` [DBEAQ], in data set [1], the “DO × 10^−6” value is listed as 1.58 × 10^−6 cm^2/s and the “k^0′O × 10^−2” value is listed as 0.70 × 10^−2 cm/s.

For the molecule `O=C1c2ccc(O)cc2C(=O)c2ccc(O)cc21` [DHAQ], in data set [1], the “DO × 10^−6” value was 4.8 × 10^−6 cm^2/s and the “k^0′O × 10^−2” value is 0.70 × 10^−2 cm/s.

With `O=C1c2ccccc2C(=O)c2c(OCCCCS(=O)(=O)O)ccc(OCCCCS(=O)(=O)O)c21` [Compound D4SH], the “Solubility, solution at pH 0 (H2SO4 1M)” value turned out to be 0.91 M and the “Solubility, solution at pH 14 (KOH 1M)” value was determined as 0.78 M. The “Peak-to-peak separation ΔEp” value in data set [4] (pH 13 (KOH 0.1 M)) came to 390 mV. Besides, the “Peak-to-peak separation ΔEp” value in data set [4] (pH 14 (KOH 1 M)) came out at 32 mV.

Take `O=C1c2ccccc2C(=O)c2c(OCCCS(=O)(=O)[O-])ccc(OCCCS(=O)(=O)[O-])c21.[Na+].[Na+]` [Compound D3SNa]: the “Solubility, solution at pH 0 (H2SO4 1M)” value is reported as 0.15 M and the “Solubility, solution at pH 14 (KOH 1M)” value worked out at 0.44 M.

Turning to `O=C1c2ccccc2C(=O)c2c(O)ccc(O)c21` [Quinizarin, quinizarin], the solubility in data set [3] (aqueous KOH 1M solution, pH 14, aqueous buffer) is less than 50 mM.

With `Cc1cc2nc3c(=O)[nH]c(=O)nc-3n(C[C@H](O)[C@H](O)[C@H](O)COP(=O)([O-])O)c2cc1C.[Na+]` [Flavine FMN-Na], in data set [1], the “DO × 10^−6” value is listed as 1.3 × 10^−6 cm^2/s and the “k^0′O × 10^−2” value was 0.53 × 10^−2 cm/s.

For `O=C1c2ccccc2C(=O)c2c(OCCCS(=O)(=O)O)ccc(O)c21` [Compound M3SH], the “Solubility, solution at pH 0 (H2SO4 1M)” value is 0.31 M and the “Solubility, solution at pH 14 (KOH 1M)” value came to 0.23 M. In addition, the “E^0′ apparent standard redox potential” value in data set [4] (5 mM, pH 14, 1 M KOH) was −0.489 V vs NHE. For the same molecule, the E1/2 half-wave potential in data set [4] (5 mM, pH 14, 1 M KOH, RDE) is on record as −0.489 V vs NHE. In addition, the “k^0′O × 10^−2 apparent heterogeneous rate constant” value in data set [4] (Gileadi's equation) is given as 3.1 × 10^−2 cm/s. The “DO × 10^−6 diffusion coefficient” value in data set [4] (Randles-Sevcik) is reported as 4.6 × 10^−6 cm^2/s. Further, the “Peak-to-peak separation ΔEp” value in data set [4] (pH 13 (KOH 0.1 M)) came out at 97 mV. Moreover, in data set [4] (pH 14 (KOH 1 M)), the “Peak-to-peak separation ΔEp” value worked out at 40 mV.

Turning to `O=C(O)CCCOc1ccc(OCCCC(=O)O)c2c1C(=O)c1ccccc1C2=O` [Compound D3CH], the “Solubility, solution at pH 0 (H2SO4 1M)” value came out at 0.30 M and the “Solubility, solution at pH 14 (KOH 1M)” value is 0.42 M. In addition, in data set [4] (pH 13 (KOH 0.1 M)), the “Peak-to-peak separation ΔEp” value is reported as 267 mV. The “Peak-to-peak separation ΔEp” value in data set [4] (pH 14 (KOH 1 M)) is recorded as 46 mV.

As to `C[N+](C)(C)CCC[n+]1ccc(-c2cc[n+](CCC[N+](C)(C)C)cc2)cc1.[Cl-].[Cl-].[Cl-].[Cl-]` [BTMAP-Vi], in data set [1], the “DO × 10^−6” value was 3.3 × 10^−6 cm^2/s and the “k^0′O × 10^−2” value was 2.2 × 10^−2 cm/s.

Take `O=C1c2ccccc2C(=O)c2c(OCCCS(=O)(=O)O)ccc(OCCCS(=O)(=O)O)c21` [Compound D3SH]: the “Solubility, solution at pH 0 (H2SO4 1M)” value amounted to 0.73 M and the “Solubility, solution at pH 14 (KOH 1M)” value is reported as 0.92 M. In data set [4] (pH 13 (KOH 0.1 M)), the “Peak-to-peak separation ΔEp” value stood at 246 mV. Also, in data set [4] (pH 14 (KOH 1 M)), the “Peak-to-peak separation ΔEp” value amounted to 40 mV.
